Values of other authors in patent US4123523A, “Analgesic and sedative polypeptides” (Imperial Chemical Industries Limited, priority 1976, dated 1978).

Tested on: cat
Conditions: injected directly into the third ventricle of the cat

Substance: β-endorphin: residues 61-91 of the naturally-occuring lipolytic polypeptide hormone lipotropin (YGGFMTSEKSQTPLVTLFKNAIIKNAYKKGE; Beta-endorphin; UniProt P01189 237-267, looked up)
- analgesic properties: possesses analgesic properties
